Consider eight compounds from US20100173935A1, “Muscarinic Receptor Agonists that are Effective in the Treatment of Pain, Alzheimer's Disease and Schizophrenia” (AstraZeneca AB, priority 2006, published 2010).

The assay has as its target T1, hM1 (human Muscarinic receptor subtype 1) (Homo sapiens, UniProt P11229).
T1 construct: expressed in transfected cells; host or cells: CHO cells (ATCC)
T1 sequence (P11229 1-460): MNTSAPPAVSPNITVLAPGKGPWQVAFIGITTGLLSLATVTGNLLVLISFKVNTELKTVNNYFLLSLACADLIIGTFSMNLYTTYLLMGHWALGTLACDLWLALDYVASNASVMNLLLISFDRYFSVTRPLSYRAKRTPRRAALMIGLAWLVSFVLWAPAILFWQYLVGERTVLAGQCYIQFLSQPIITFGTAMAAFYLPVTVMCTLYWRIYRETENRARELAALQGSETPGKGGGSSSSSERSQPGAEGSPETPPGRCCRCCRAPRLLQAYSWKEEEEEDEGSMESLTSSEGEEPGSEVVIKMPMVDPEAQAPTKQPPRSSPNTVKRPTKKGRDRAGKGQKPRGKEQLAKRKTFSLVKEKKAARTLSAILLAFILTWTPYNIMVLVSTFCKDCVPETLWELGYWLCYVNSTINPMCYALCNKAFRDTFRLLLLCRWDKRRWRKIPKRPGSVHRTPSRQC
Description: Human M1 calcium mobilization FLIPR assay. As to conditions: CHO cells expressing hM1, Ca2+ release. It counts as cell-based. The protocol:
The compound activity in the present invention (EC50 or IC50) was measured using a 384 plate-based imaging assay that monitors drug induced intracellular Ca^2+ release in whole cells. Activation of hM1 (human Muscarinic receptor subtype 1, gene bank access NM_000738), rM1 (rat Muscarinic receptor subtype 1, gene bank access NM_080773), hM3 (human Muscarinic receptor subtype 3, gene bank access NM_000740NM_000740) and hM5 (human Muscarinic receptor subtype 5, gene bank access NM_0121258), receptors expressed in CHO cells (chinese hamster ovary cells, ATCC) was quantified in a Molecular Devices FLIPR II™ instrument as an increase in fluorescent signal. Inhibition of hM3 and hM5 by compounds was determined by the decrease in fluorescent signal in response to 20 nM carbachol activation.
CHO cells were plated in 384-black polylysine coated plate (Costar) at 8000 cells/well/50 μl for 24 hours or 4000 cells/well for 48 hours in a humidified incubator (5% CO2 and 37° C.) in DMEM/F12 medium without selection agent. Prior to the experiment the cell culture medium was removed from the plates by inversion. A loading solution of 30 μl of Hank's balanced salt solution, 10 mM Hepes and 2.5 mM Probenicid at Ph 7.4 (Cat no. 311-520-VL, Wisent) with 2 μM calcium indicator dye (FLUO-3AM, Molecular Probes F14202) was added to each well. Plates were incubated at 37° C. for 60 minutes prior to start the experiment. The incubation was terminated by washing the cells four times in assay buffer, leaving a residual 25 μl buffer per well. Cell plates were then transferred to the FLIPR, ready for compound additions.
The day of experiment, carbachol and compounds were diluted in three-fold concentration range (10 points serial dilution) for addition by FLIPR instrument. For all calcium assays, a baseline reading was taken for 30 seconds followed by the addition of 12.5 μl (25 μl for hM1 and rM1) of compounds, resulting in a total well volume of 37.5 μl (50 μl for hM1 and rM1). Data were collected every 1.6 seconds for 300 seconds. For hM3 and hM5 an additional 12.5 μl of carbachol (20 nM final) was added at 300 seconds. After this addition of carbachol (producing a final volume of 50 μl), the FLIPR continued to collect data every 2 seconds for 240 seconds. The fluorescence emission was read using filter 1 (emission 520-545 nm) by the FLIPR on board CCD camera.
Calcium mobilization output data were calculated as the maximal relative fluorescence unit (RFU) minus the minal value for both compound and agonist reading frame (except for hM1 and rM1 using only the maximal RFU). Data were analyzed using sigmoidal fits of a non-linear curve-fitting program (XLfit version 5.0.6 from ID Business Solutions Limited, Guildford, UK). All EC50 and IC50 values are reported as arithmetic means±standard error of mean of ‘n’ independent experiments.
In general terms: Calcium flux is commonly read through the fluorescence of an indicator in the cells.

Usually EC50 stands for the midpoint of the concentration-response curve. With `Cn1cccc1C(=O)N1CC[C@H](N2CCC(n3c(=O)[nH]c4ccccc43)CC2)C1` [Example 21, 1-(1-{(3S)-1-[(1-methyl-1H-pyrrol-2-yl)carbonyl]pyrrolidin-3-yl}piperidin-4-yl)-1,3-dihydro-2H-benzimidazol-2-one], the EC50 was found to be 1180 nM. Turning to `CCOC(=O)N1CCC(N2CCC(=C3C(=O)Nc4ccccc43)CC2)C1` (centres unmarked) [Example 12, Ethyl 3-[4-(2-oxo-1,2-dihydro-3H-indol-3-ylidene)piperidin-1-yl]pyrrolidine-1-carboxylate], the EC50 is 2690 nM. `CCOC(=O)N1CCC(N2C3CCC2CC(n2c(=O)[nH]c4ccccc42)C3)C1` (centres unmarked) [Example 30, Ethyl 3-[3-(2-oxo-2,3-dihydro-1H-benzimidazol-1-yl)-8-azabicyclo[3.2.1]oct-8-yl]pyrrolidine-1-carboxylate]: the EC50 was 518 nM. Next, `CCOC(=O)N1CCC(N2CCC(n3c(=O)n(C)c4ccccc43)CC2)C1` (centres unmarked) [Example 10, Ethyl 3-[4-(3-methyl-2-oxo-2,3-dihydro-1H-benzimidazol-1-yl)piperidin-1-yl]pyrrolidine-1-carboxylate]: 286 nM; `CCOC(=O)N1CC[C@H](N2CCC(n3c(=O)[nH]c4ccc(OC)cc43)CC2)C1` (single isomer, unassigned) [Example 39]: 21.9 nM. As for `CCOC(=O)N1CCC(N2CCC(n3nnc4ccccc43)CC2)C1` (centres unmarked) [Example 11, ethyl 3-[4-(1H-1,2,3-benzotriazol-1-yl)piperidin-1-yl]pyrrolidine-1-carboxylate], the EC50 is 612 nM. With `CCOC(=O)N1CC[C@H](N2CCC(n3c(=O)[nH]c4ccc(C)cc43)CC2)C1` (single isomer, unassigned) [Example 37] the figure was 0.6 nM; with `CCOC(=O)N1CCC(N2CCC(n3c(=O)[nH]c4ccc(C)cc43)CC2)C1` (single isomer, unassigned) [Example 38], 7.9 nM.
